Entries after “also recorded” stand apart in the source; their conditions may differ.
Key:
[1] = tested on: purified human 20S proteasome and immunoproteasome, T-like activity; experiment: Purified proteasome fluorescence assay, T-like activity; assay type: biochemical
[2] = tested on: pIκBα in CD14+ human blood monocytes; experiment: pIκBα protein levels by immunoblot; assay type: cell-based; settings: LPS 10 ng/ml-induced monocytes, resveratrol 80 μM or ONX-0914 0.25 μM, 60 min preincubation
[3] = tested on: CD14+ human blood monocytes; experiment: Gene expression by qRT-PCR in LPS-induced CD14+ monocytes; assay type: cell-based; settings: for expression of Bax / expression of Bcl2 / proteasome subunits RNA (X, Y, Z): resveratrol 80 μM or ONX-0914 0.25 μM; for LPS-induced atg7 expression / LPS-induced expression of resistin / expression of ICAM-1 / expression of IFNγ / expression of IL-8 / expression of LMP10 subunit / expression of Sirt-1 / expression of TNF-α / mRNA expression of LMP2 subunit / mRNA expression of LMP7 subunit: resveratrol 80 μM or ONX-0914 0.25 μM pretreatment 1h, LPS 10 ng/mL 4h; for proteasome subunits RNA (X, Y, Z): with LPS 10 ng/mL 4h
THP1 cells = experiment: Cyto-ID autophagy detection assay, THP1 cells; assay type: cell-based, human; settings: 4h incubation, resveratrol 80 μM, ONX-0914 0.25 μM
[4] = tested on: purified human 20S proteasome and immunoproteasome, PA activity; experiment: Purified proteasome fluorescence assay, PA activity; assay type: biochemical; settings: 50 μM dose, cell-free
[5] = molecular target: purified human 20S immunoproteasome (LMP7, LMP2 and LMP10), CT-like activity (Homo sapiens, UniProt P28062); experiment: Purified proteasome fluorescence assay, CT-like activity, immunoproteasome; assay type: biochemical
monocytes = experiment: MTT and LDH cell death assay; settings: 80 μM, human monocytes, MTT, LDH or autophagy tests
[6] = MTT and LDH cell death assay; settings: human
[7] = tested on: T-like proteasome activity in THP1 cells; experiment: Cell-based proteasome activity, luminescence assay; set-up: species or system human; settings: read-out: IC50, T-like activity (cellular), 30 min incubation
[8] = tested on: PA proteasome activity in THP1 cells; experiment: Cell-based proteasome activity, luminescence assay; set-up: species or system human; settings: read-out: IC50, PA activity (cellular), 30 min incubation
[9] = molecular target: purified human 20S proteasome (X, Y and Z), CT-like activity (Homo sapiens, UniProt P28074); assay type: biochemical
[10] = tested on: CD14+ human blood monocytes; experiment: Cyto-ID autophagy detection assay, blood monocytes; assay type: cell-based; settings: 4h incubation, resveratrol 80 μM
[11] = molecular target: purified human 20S proteasome, PA activity (Homo sapiens, UniProt P28072); experiment: Purified proteasome fluorescence assay, PA activity, constitutive proteasome; assay type: biochemical
[12] = tested on: CT-like proteasome activity in THP1 cells; experiment: Cell-based proteasome activity, luminescence assay; set-up: species or system human; settings: read-out: IC50, CT-like activity (cellular), 30 min incubation
[13] = molecular target: purified human 20S immunoproteasome (LMP subunits), PA activity (Homo sapiens, UniProt P28065); experiment: Purified proteasome fluorescence assay, PA activity, immunoproteasome; assay type: biochemical

Structure (SMILES): COc1ccc(C[C@H](NC(=O)[C@H](C)NC(=O)CN2CCOCC2)C(=O)N[C@@H](Cc2ccccc2)C(=O)C2(C)CO2)cc1 (stereo in doubt) [ONX-0914, reference compound]
- inhibition of T-like activity ([1]; highest dose of ONX-0914, cell-free): didn’t observe any inhibition
- degradation of pIκBα protein [2]: inhibited pIκBα protein degradation
- expression of Bax [3]: didn’t notice any effect
- expression of Bcl2 [3]: didn’t notice any effect
- LPS-induced atg7 expression [3]: but not by ONX-0914
- LPS-induced expression of resistin [3]: decreased
- expression of ICAM-1 [3]: significantly downregulated
- expression of IFNγ [3]: significantly downregulated
- expression of IL-8 [3]: significantly downregulated
- expression of LMP10 subunit [3]: no significant change
- expression of Sirt-1 [3]: no significant upregulation
- expression of TNF-α [3]: significantly downregulated
- mRNA expression of LMP2 subunit [3]: robust decrease
- mRNA expression of LMP7 subunit [3]: robust decrease
- proteasome subunits RNA (X, Y, Z) [3]: did not observe a significant change
- induction of autophagy (THP1 cells): resulted in autophagy and vacuole accumulation
- inhibition of PA activity [4]: 30%

Structure (SMILES): Oc1ccc(C=Cc2cc(O)cc(O)c2)cc1 [resveratrol, 3,5, 4′-trihydroxystilbene]
- IC50 [5]: 39.8 µM
- cell death (monocytes): no cell death was observed
- viability at 4 h, 100 μM [6]: > 90%
- IC50 [7]: 5 µM
- IC50 [8]: 1.37 µM
- IC50 [9]: 59.4 µM
- inhibition of T-like activity ([1]; 100 μM dose, cell-free): 33%
- induction of autophagy [10]: did not induce autophagy
- degradation of pIκBα protein [2]: inhibited degradation of pIκBα protein levels
- IC50 [11]: 52.9 µM
- expression of Bax [3]: no change; also recorded: didn’t notice any effect
- expression of Bcl2 [3]: no change; also recorded: didn’t notice any effect
- LPS-induced atg7 expression [3]: downregulated
- LPS-induced expression of resistin [3]: decreased
- expression of ICAM-1 [3]: significantly downregulated
- expression of IFNγ [3]: significantly downregulated
- expression of IL-8 [3]: significantly downregulated
- expression of LMP10 subunit [3]: no significant change
- expression of Sirt-1 [3]: no significant upregulation
- expression of TNF-α [3]: significantly downregulated
- mRNA expression of LMP2 subunit [3]: robust decrease
- mRNA expression of LMP7 subunit [3]: robust decrease
- proteasome subunits RNA (X, Y, Z) [3]: did not observe a significant change
- expression of beclin1, eIF2α, p53 and hdac6 genes ([3]; resveratrol 80 μM, with or without LPS 10 ng/mL): no significant change
- induction of autophagy (THP1 cells): did not induce autophagy
- IC50 [12]: 1.9 µM
- IC50 [13]: 40.8 µM

Reference: paper PMC5999526 (Shock (Augusta, Ga.), 2018)
